For assay [1], the system named is Mouse melanoma cells B16F1. The experiment in a line: Melanin production inhibition test, B16F1 cells. It counts as cell-based. As to conditions: control = 100; for Melanin production rate: α-MSH 100 ng/mL, 72 hours. How it is done: Mouse melanoma cells B16F1 were the third or higher passage cultured in Dulbecco's Modified Eagle Medium (D-MEM) containing 10% FBS (manufactured by Nissui Pharmaceutical Co., Ltd.) mixed with 0.5% penicillin-streptomycin (manufactured by Gibco).
(§1) The test samples were the freeze-dried products of the hot water extract obtained in Preparation 1 (1) and the fractions eluted with 10% and 50% aqueous ethanol solutions obtained in Preparation 1 (2).
(a) Amount of Melanin Production • 960 μL of mouse cells B16F1 cultured in D-MEM culture medium containing 10% FBS was seeded on a 24-well plate to give a final concentration of 1.0×10^5 cells/well (seeding concentration: 1.04×10^5 cells/mL), and cultured for 24 hours in a CO^2 incubator. 20 μL of melanin production hormone (α-MSH) adjusted to a final concentration of 100 ng/mL (addition concentration: 5.0 μg/mL) and 20 μL of test sample adjusted to 10 μg/mL (500 μg/mL) or 100 μg/mL (5000 μg/mL) were added, and cultured for 72 hours. The culture medium was removed, washed with PBS, and then 100 μL of a trypsin EDTA solution was added thereby removing the cells from the plate, and 900 μL of 1N sodium hydroxide aqueous solution was added. The cells were allowed to stand at room temperature for 20 to 24 hours thereby causing cytolysis, and then the melanin content was measured at an absorbance of 475 nm.

The subject of the next assay is tyrosinase. The experiment in a line: Tyrosinase activity inhibition test. It counts as biochemical. To be noted: DOPA substrate, control = 100. On the procedure: as §1
0.5 mL of substrate (DOPA) solution adjusted to the final concentration of 0.03% with a phosphoric acid buffer was mixed with 0.5 mL of test sample solution prepared using a phosphoric acid buffer, and cooled on ice. 0.5 mL of tyrosinase solution adjusted to the final concentration of 45 U/mL with a phosphoric acid buffer was added to the mixture, incubated at 25° C. for 5 minutes, and then the absorbance at 475 nm was measured. The reaction rate (activity) of tyrosinase was calculated from the difference of the absorbance. In order to eliminate the influence of the color of the test sample, the absorbance of a mixture containing a phosphoric acid buffer in place of the tyrosinase solution was measured, thereby correcting the absorbance.

The subject of assay [2] is Human melanoma cells (HMVII). The assay can be described thus: Melanin production inhibition test, HMVII cells. To be noted: control = 100. Format: cell-based. From the text:
Human melanoma cells (HMVII) were the third or higher passage cultured in a culture solution of a Ham F-12 culture medium (manufactured by Nissui Pharmaceutical Co., Ltd.) containing 10% FBS, mixed with 0.5% penicillin-streptomycin (manufactured by Gibco). The test samples were the freeze-dried products of the hot water extract obtained in Preparation 1 (1) and the fractions eluted with 10% and 50% aqueous ethanol solutions obtained in Preparation 1 (2). […] The culture medium was removed, washed with PBS, and then 100 μL of a trypsin EDTA solution was added thereby removing the cells from the plate, and 900 μL of 1N sodium hydroxide aqueous solution was added. The cells were allowed to stand at room temperature for 20 to 24 hours thereby causing cytolysis, and then the melanin content was measured at an absorbance of 475 nm.

Structures are written as SMILES.

For the molecule `OC[C@H]1O[C@@H](Oc2ccc(O)cc2)[C@H](O)[C@@H](O)[C@@H]1O` [β arbutin], the “Melanin production rate after correction of survival rate” value in assay [1] (10 μg/mL) came out at 83.48%; in assay [1] (100 μg/mL) it was 82.52%. The Melanin production rate in assay [1] (10 μg/mL) was determined as 95.41%; in assay [1] (100 μg/mL), 93.76%.

`O=c1cc(CO)occ1O` [Kojic acid]: the “Reaction rate of tyrosinase” value came to 42.35% with tyrosinase (10 μg/mL) and 8.71% in the assay with tyrosinase (100 μg/mL).

For the molecule `O=C1O[C@H]([C@@H](O)CO)C(O)=C1O` [Ascorbic acid], the “Melanin production rate after correction of survival rate” value in assay [2] (10 μg/mL) is listed as 102.74%; in assay [2] (100 μg/mL) it was 95.60%. In addition, in assay [2] (100 μg/mL, α-MSH 100 ng/mL, 72 hours), the Melanin production rate was 94.76%.

Values taken from patent US8673376B2, “Polyphenol-containing composition for oral administration or external use and use of same” (Biotherapy Development Research Center Co., Ltd., priority 2009, dated 2014).
